Laboratory results reported in ChEMBL document CHEMBL3045758, “Quantitative Structure-Activity Relationships of Fungicidal N-Phenylformamidoximes” (J Pestic Sci, 1992).

Legend:
Botrytis cinerea [1] = test: Fungicidal activity against benzimidazole-resistant Botryotinia fuckeliana infected kidney bean leaf at 100 ppm after 7 days in greenhouse conditions by detached leaf test; type: functional
Phaseolus vulgaris = test: Phytotoxicity against Phaseolus vulgaris (kidney bean) assessed as necrosis of leaf at 100 ppm after 7 days in greenhouse conditions; type: organism-based; conditions: in vivo, 168 h
Botrytis cinerea [2] = test: Fungicidal activity against benzimidazole-resistant Botryotinia fuckeliana at 25 ppm after 48 hr by poisoned food technique; type: functional
[3] = 1-octanol/water distribution coefficient, log P of the compound; type: physicochemical
Botrytis cinerea [4] = test: Fungicidal activity against benzimidazole-resistant Botryotinia fuckeliana after 48 hr by poisoned food technique; type: functional, organism-based
Botrytis cinerea [5] = test: Fungicidal activity against benzimidazole-resistant Botryotinia fuckeliana at 6.2 ppm after 48 hr by poisoned food technique; type: functional
Botrytis cinerea [6] = test: Fungicidal activity against benzimidazole-resistant Botryotinia fuckeliana at 200 ppm after 48 hr by poisoned food technique; type: functional
Botrytis cinerea [7] = test: Resistance ratio of EC50 for benzimidazole-resistant Botryotinia fuckeliana to EC50 for benzimidazole-sensitive Botryotinia fuckeliana; type: functional
Botrytis cinerea [8] = test: Fungicidal activity against benzimidazole-sensitive Botryotinia fuckeliana after 48 hr by poisoned food technique; type: functional, organism-based
Botrytis cinerea [9] = test: Ratio of DMPF EC50 to compound EC50 for benzimidazole-resistant Botryotinia fuckeliana; type: functional
[10] = Botrytis cinerea, 48 h, read-out: pEC50 (converted)

SMILES: CCO/N=C/Nc1cc(Cl)cc(Cl)c1
- Activity (Botrytis cinerea [1]): <25%
- Activity (Phaseolus vulgaris): <= 10%
- Activity (Botrytis cinerea [2]): 26%
- logP [3]: 3
- EC50 (Botrytis cinerea [4]; [10]): 12 µM
- Activity (Botrytis cinerea [5]): <25%
- Activity (Botrytis cinerea [6]): 100%

SMILES: CO/N=C/Nc1cc(Cl)cc(Cl)c1
- Ratio EC50 (Botrytis cinerea [7]): 10000
- EC50 (Botrytis cinerea [4]): 3 ppm
- EC50 (Botrytis cinerea [8]): 50 ppm

SMILES: C#CCc1c(Cl)cc(N/C=N/OC)cc1Cl
- Ratio EC50 (Botrytis cinerea [7]): 10
- Ratio EC50 (Botrytis cinerea [9]): 600
- Activity (Phaseolus vulgaris): Non-toxic
- logP [3]: 3.3
- EC50 (Botrytis cinerea [4]): 0.005 ppm
- EC50 (Botrytis cinerea [4]; [10]): 0.0182 µM
- EC50 (Botrytis cinerea [8]): 30 ppm

SMILES: CCO/N=C/Nc1cc(Cl)c(Cl)c(Cl)c1 [N'-ETHOXY-N-(3,4,5-TRICHLOROPHENYL)FORMIMIDAMIDE]
- Activity (Botrytis cinerea [1]): <25%
- Activity (Phaseolus vulgaris): Non-toxic
- Activity (Botrytis cinerea [2]): <25%
- Activity (Botrytis cinerea [5]): <25%
- Activity (Botrytis cinerea [6]): 26%

SMILES: CCO/N=C/Nc1cc(OCC)c(OCC)c(OCC)c1 [N'-ETHOXY-N-(3,4,5-TRIETHOXYPHENYL)FORMIMIDAMIDE]
- Activity (Botrytis cinerea [1]): <25%
- Activity (Phaseolus vulgaris): Non-toxic
- Activity (Botrytis cinerea [2]): 26%
- Activity (Botrytis cinerea [5]): <25%
- Activity (Botrytis cinerea [6]): 100%

SMILES: CCO/N=C/Nc1ccc(OCC)cc1C [N'-ETHOXY-N-(4-ETHOXY-2-METHYLPHENYL)FORMIMIDAMIDE]
- Activity (Botrytis cinerea [1]): <25%
- Activity (Phaseolus vulgaris): <= 10%
- Activity (Botrytis cinerea [2]): <25%
- Activity (Botrytis cinerea [5]): <25%
- Activity (Botrytis cinerea [6]): <25%

SMILES: CCO/N=C/Nc1cc(C)c(OCC)c(C)c1 [N'-ETHOXY-N-(4-ETHOXY-3,5-DIMETHYLPHENYL)FORMIMIDAMIDE]
- Activity (Botrytis cinerea [1]): 50%
- Activity (Phaseolus vulgaris): <= 10%
- Activity (Botrytis cinerea [2]): 100%
- Activity (Botrytis cinerea [5]): 50%
- Activity (Botrytis cinerea [6]): 100%

SMILES: CCO/N=C/Nc1ccc(OCC)c(C)c1 [N'-ETHOXY-N-(4-ETHOXY-3-METHYLPHENYL)FORMIMIDAMIDE]
- Activity (Botrytis cinerea [1]): <25%
- Activity (Phaseolus vulgaris): 11%
- Activity (Botrytis cinerea [2]): <25%
- Activity (Botrytis cinerea [5]): <25%
- Activity (Botrytis cinerea [6]): 100%

SMILES: CCO/N=C/Nc1cc(C)c(OCC)c(OCC)c1 [N-(3,4-DIETHOXY-5-METHYLPHENYL)-N'-ETHOXYFORMIMIDAMIDE]
- Activity (Botrytis cinerea [1]): 70%
- Activity (Phaseolus vulgaris): Non-toxic
- Activity (Botrytis cinerea [2]): 100%
- Activity (Botrytis cinerea [5]): 100%
- Activity (Botrytis cinerea [6]): 100%

SMILES: CCO/N=C/Nc1cc(Cl)cc(Cl)c1OCC [N-(3,5-DICHLORO-2-ETHOXYPHENYL)-N'-ETHOXYFORMIMIDAMIDE]
- Activity (Botrytis cinerea [1]): <25%
- Activity (Phaseolus vulgaris): Non-toxic
- Activity (Botrytis cinerea [2]): 90%
- Activity (Botrytis cinerea [5]): 70%
- Activity (Botrytis cinerea [6]): 100%

SMILES: CCO/N=C/Nc1cc(Cl)c(OCC)c(Cl)c1 [N-(3,5-DICHLORO-4-ETHOXYPHENYL)-N'-ETHOXYFORMIMIDAMIDE]
- Activity (Botrytis cinerea [1]): 100%
- Activity (Phaseolus vulgaris): Non-toxic
- Activity (Botrytis cinerea [2]): 100%
- Activity (Botrytis cinerea [5]): 90%
- Activity (Botrytis cinerea [6]): 100%

SMILES: CCO/N=C/Nc1cc(Cl)c(C)c(Cl)c1 [N-(3,5-DICHLORO-4-METHYLPHENYL)-N'-ETHOXYFORMIMIDAMIDE]
- Activity (Botrytis cinerea [1]): <25%
- Activity (Phaseolus vulgaris): Non-toxic
- Activity (Botrytis cinerea [2]): <25%
- Activity (Botrytis cinerea [5]): <25%
- Activity (Botrytis cinerea [6]): <25%

SMILES: CCO/N=C/Nc1cc(Cl)c(OCC)c(OCC)c1 [N-(3-CHLORO-4,5-DIETHOXYPHENYL)-N'-ETHOXYFORMIMIDAMIDE]
- Activity (Botrytis cinerea [1]): 100%
- Activity (Phaseolus vulgaris): Non-toxic
- Activity (Botrytis cinerea [2]): 100%
- Activity (Botrytis cinerea [5]): 100%
- Activity (Botrytis cinerea [6]): 100%

SMILES: CCO/N=C/Nc1ccc(OCC)c(Cl)c1 [N-(3-CHLORO-4-ETHOXYPHENYL)-N'-ETHOXYFORMIMIDAMIDE]
- Activity (Botrytis cinerea [1]): <25%
- Activity (Phaseolus vulgaris): Non-toxic
- Activity (Botrytis cinerea [2]): 26%
- Activity (Botrytis cinerea [5]): <25%
- Activity (Botrytis cinerea [6]): 100%

SMILES: CCO/N=C/Nc1ccc(C)c(Cl)c1 [N-(3-CHLORO-4-METHYLPHENYL)-N'-ETHOXYFORMIMIDAMIDE]
- Activity (Botrytis cinerea [1]): <25%
- Activity (Phaseolus vulgaris): <= 10%
- Activity (Botrytis cinerea [2]): 26%
- Activity (Botrytis cinerea [5]): <25%
- Activity (Botrytis cinerea [6]): 100%

SMILES: CCO/N=C/Nc1ccc(Cl)cc1C [N-(4-CHLORO-2-METHYLPHENYL)-N'-ETHOXYFORMIMIDAMIDE]
- Activity (Botrytis cinerea [1]): <25%
- Activity (Phaseolus vulgaris): 11%
- Activity (Botrytis cinerea [2]): <25%
- Activity (Botrytis cinerea [5]): <25%
- Activity (Botrytis cinerea [6]): 70%

SMILES: CCO/N=C/Nc1cc(Cl)ccc1OCC [N-(5-CHLORO-2-ETHOXYPHENYL)-N'-ETHOXYFORMIMIDAMIDE]
- Activity (Botrytis cinerea [1]): <25%
- Activity (Phaseolus vulgaris): <= 10%
- Activity (Botrytis cinerea [2]): 100%
- Activity (Botrytis cinerea [5]): <25%
- Activity (Botrytis cinerea [6]): 100%
